We go through one molecule from patent US20240199601A1, “QUINONE COMPOUND AND PHARMACEUTICAL USE THEREOF” (NANJING SHUPENG LIFE SCIENCE CO., LTD., priority 2021, published 2024).

SMILES strings stand for the structures.

For one assay, the system named is AMPK. Description: AMPK phosphorylation level in a variety of cells. Type of assay: cell-based. As to conditions: 100 nM.
The test system of assay [1] is autophagy related protein (LC3B). As to the kind of experiment: LC3B expression in RAW264.7 cells (protein hybridization). Type of assay: cell-based. As to conditions: different concentrations, 24 hours. Here is the method:
(§1) RAW264.7 cells were inoculated into two six-well plates and enabled to grow to a density of about 90%, and SP3101 and SP3102 of different concentrations were added, respectively. 24 hours later, the cells were lysed with a radio immunoprecipitation assay (RIPA) lysis buffer, and the expression of proteins was detected by protein hybridization.
(§2) Phosphorylation of serine at the 127th site of AMPK is used as an activation marker. […] It can be seen that the compounds, represented by the SP3101 and the SP3102, of the present invention are used as an AMPK agonist.

The test system of assay [2] is inflammatory pain model with AMPK inhibited. As to the kind of experiment: Long-acting analgesic mechanism: CFA pain model with AMPK inhibitor compound c. The assay is classed as in vivo, SD rats. Particulars: compound c (Dorsomorphin) into caudal vein half an hour before oral SP3101 20 mg/kg, rats. As for the experimental part:
Similar to the modeling method in Activity Test 1, 100 uL of a complete Freund's adjuvant was injected into the soles of the left feet of SD rats with a body weight of 200-250 g, mechanical pain thresholds of the left feet were detected by an ALMEMO2490 data collector 24 hours later, and the rats with a pain threshold of greater than 15 were abandoned. On the second day of modeling, 100 μL of a compound c as an AMPK inhibitor (Dorsomorphin, CAS No.866405-64-3, CC, 0.4 mg/ml) was injected into the caudal vein of each rat, the rats were orally administered with SP3101 (20 mg/kg) half an hour later, and the pain thresholds were detected after 1.5 hours and 24 hours, respectively.

The subject of assay [3] is oxaliplatin-induced hyperalgesia. As to the kind of experiment: Oxaliplatin chemotherapy pain model. The assay is classed as in vivo, C57LB6 mice. As to conditions: 40 mg/kg by gavage, oxaliplatin 3 mg/kg i.p., mice, Von Frey. Here is the method: A total of 30 10-week-old wild male C57LB6 mice were selected.
On DAY 0, the mice were allowed to adapt to the environment for 7 days first, basic mechanical pain thresholds were detected and were basically about 1-1.4 g, and a total of 30 mice were used in this test without abnormal mice.
On DAYS 1-5, the mice were randomly divided into 3 groups including a blank control group (n=10), a model control group (n=10) and an SP3101 group (40 mg/kg, n=10). The mice in the SP3101 group were administrated with an SP3101 aqueous solution by gavage, the mice in the model control group were administrated with double distilled water by gavage, and the mice in the model control group and the SP3101 group were administrated with oxaliplatin (3 mg/kg) by intraperitoneal injection 0.5 hour later. The same operations were continuously performed for 5 days. On DAY 5, the pain thresholds were detected by using Von Frey fibrils.
On DAYS 6-10, the mice were only administered with SP3101 and water by gavage.
On DAYS 11-15, the operations on DAYS 1-5 were repeated, and on DAY 11, the pain thresholds were detected by using Von Frey fibrils.
On DAYS 16-20, the mice were only observed, and on DAY 16 and DAY 20, the mechanical pain thresholds were detected.

Assay [4] relates to paclitaxel-induced hyperalgesia. Description: Paclitaxel chemotherapy pain model. The assay is classed as in vivo, B6 mice. Particulars: 40 mg/kg by gavage once a day for 15 days, paclitaxel 4 mg/kg i.p. x4, mice, Von Frey 0.07 g and 0.4 g. The source says:
A total of 30 8- to 10-week-old male B6 mice were selected and allowed to adapt to the environment for three days.
On DAY 0, mechanical pain thresholds were detected by using Von Frey fibrils, the mice with abnormal pain thresholds were abandoned, and the basic pain thresholds were basically about 0.6-1.0 g. According to the basic pain thresholds, a pain threshold of 0.07 g was used in this test, and a pain threshold of 0.4 g was used in subsequent detection. Behaviors such as foot lifting and foot licking were identified as positive responses. […] The mice were randomly divided into the following groups: (1) a model control group (PC, n=10), (2) an SP3101 group administered at a dose of 40 mg/kg (n=10) by gavage and (3) a blank control group (NC). The mice in the model control group were administrated with double distilled water by gavage, the mice in the model control group and the SP3101 group were administrated with paclitaxel (4 mg/kg) by intraperitoneal injection 0.5 hour later, and the mice in the blank control group were administrated with normal saline by intraperitoneal injection. […] The first modeling day was determined as DAY 0. […] On DAY 0, 3, 7, 9, 14, 18 and 21, the mechanical pain thresholds were detected.

Assay [5] deals with antioxidant transcription factor (Nrf2). As to the kind of experiment: Nrf2 expression in RAW264.7 cells (protein hybridization). Type of assay: cell-based. Particulars: different concentrations, 24 hours. As for the experimental part: as §1, §2
Assay [6] has as its system chronic constriction injury (CCI) model. As to the kind of experiment: Neuropathic pain, CCI model of the sciatic nerve, Von Frey. Type of assay: in vivo, B6 mice. As to conditions: 40 mg/kg by gavage, 1.5, 24 and 48 hours after administration, CCI mice, p<0.01. The source says:
A CCI model was used for realizing neuropathic pain. 6- to 8-week-old B6 mice were anesthetized, shaved from the roots of the left legs to parts about 1-2 mm higher than the horizontal lines of the tail root bones, and cut horizontally to obtain small wounds. Muscles were bluntly separated by hemostatic forceps, the sciatic nerves were found and picked out with elbow tweezers, and 4-0 chromium-containing catgut sutures soaked in sterile normal saline in advance were picked out with another elbow tweezer. Three catgut sutures were penetrated through the sciatic nerve of each mouse and ligatured in an upper part, a middle part and a lower part at a distance of 1 mm, respectively at an appropriate intensity enabling surrounding muscles to have small and transient twitches. […]
On day 7 after surgery, mechanical pain thresholds of the mice were detected by using Von Frey fibrils. […] Then, the mice were stimulated again at an adjacent lower intensity, and the intensity interval of first positive responses and negative responses was recorded. […]
The test mice were divided into three groups: an unmolded group, a molded solvent group and a molded administration group. 0.5% methylcellulose was used as a solvent, SP3101 was used as a drug and administered at a dose of 40 mg/kg according to the body weight each time, and the pain thresholds were detected 1.5, 24, 48 and 72 hours after administration.

As to `O=C1C(=O)c2nc(O)cc(C(=O)O)c2-c2[nH]ccc21` [SP3101, 4,5-dioxo-4,5-dihydro-1H-pyrrolo[2,3-f]quinone-7-hydroxy-9-carboxylic acid], in the assay on AMPK, the “phosphorylation level of the AMPK” value is listed as “significantly up-regulate”. For the same molecule, in assay [1], the “expression of autophagy related protein (LC3B)” value is reported as “also increased”. In assay [2], the “long-acting (24 hours) analgesic effect while AMPK is inhibited” value is “eliminated” and the “short-acting (1.5 hours) analgesic effect while AMPK is inhibited” value is given as “not affected”. In assay [3], the “prevention of oxaliplatin-induced hyperalgesia” value is “obviously prevent oxaliplatin-induced hyperalgesia”. In addition, in assay [4], the “alleviation of paclitaxel-induced hyperalgesia” value is “obvious effect of alleviating the paclitaxel-induced hyperalgesia”. Further, the “expression of antioxidant transcription factor (Nrf2)” value in assay [5] was “increased in a dose-dependent manner”. For the same molecule, the “analgesic effect (Von Frey mechanical pain threshold)” value in assay [6] is recorded as “obvious analgesic effect”.
